Measured values taken from patent US12325700B2, “Crystal form S4 of the PLK4 inhibitor (1R,2S)-(e)-2-(3-(4-((cis-2,6-dimethylmorpholino)methyl)styryl)-1 h-imidazol-6-yl)-5′-methoxyspiro[cyclopropane-1,3′-indolin]-2′-one fumarate” (UNIVERSITY HEALTH NETWORK, priority 2019, dated 2025).
Converted amounts (≈) assume the structure as drawn. Where a name gives a salt, the structure may show the parent alone. Read-outs that look alike come from different tables or passages of the source.

Tests used:
[1] = Equilibrium solubility in bio-relevant media at ambient temperature; type: physicochemical; conditions: for solubility thermodynamic: thermodynamic from solid
Method: Also, equilibrium solubilities were measured in various bio-relevant media at ambient temperature.

[2] = Dynamic vapor sorption (DVS) hygroscopicity measurement; type: physicochemical; conditions: 25° C.
Method: Hygroscopicity measurements were performed by transferring about 10 mg of sample into a DVS instrument and subsequently recording the weight change with respect to the atmospheric humidity at 25° C. using the following parameters: […]

[3] = In-vitro dissolution testing of tablets (oral dosage forms); type: physicochemical
Excerpt: According to the FDA's guidance, in vitro dissolution testing of a drug substance in its oral dosage forms can be properly designed to establish an In Vivo-In Vitro Correlation (IVIVC), i.e., the correlation between an in-vitro property of a dosage form and an in-vivo response. With this guidance, two batches of fumarate containing crystal forms D and S4 were used to prepare tablets, to evaluate any impact on performance of the drug product. Each of the two batches of fumarate and excipients were individually sieved before weighing. The desired weight of each component was then transferred into a shaker mixer and blended. Tableting for the two batches was then performed using a single punch tablet press.
The performance of these tablets was then evaluated using a properly validated dissolution test method.

[4] = Intrinsic dissolution rate at pH 2; type: physicochemical
[5] = human, in vivo
Method: Patients were dosed in clinical trials approved by Health Canada and the Research Ethics Board of the Hospital administering the drug. Eight patients were administered the form S4 tablets, six at a dose level of 48 mg and two at a dose level of 160 mg. 64 patients were administered the form D tablets at doses ranging from 3-160 mg.
Blood was collected for analysis prior to dosing and 2, 4, and 6 h after dosing. Briefly, using standard phlebotomy procedures, approximately 6 mL of blood was collected into a K3EDTA blood collection tube and then inverted 8-10 times to mix. The sample was then centrifuged at 1,000 g for 10-15 min at approximately 5° C. The plasma fraction of the blood was removed using a disposable pipette, transferred to a new tube, frozen at −70° C. and subsequently shipped on dry ice for analysis.
Levels of compound (I) were measured in plasma using a method validated in accordance to all applicable USFDA, OECD and MHLW regulations and the USFDA Guidance for Industry: Bioanalytical Method Validation May 2001. […] After evaporation of the extraction solvent, the sample extracts were reconstituted and analyzed by reversed-phase HPLC using a Waters Atlantis dC18. […] The ionized compounds were detected using MS/MS. […] Pharmacokinetic parameters were determined using the Excel add in “PK Functions” […]

SMILES | solubility thermodynamic ([1]; fasted state simulating gastric fluid (FaSSGF), fassgf or other biorelevant, fasted state simulating gastric fluid (FaSSGF), read-out: equilibrium solubility in FaSSGF) | solubility thermodynamic ([1]; fasted state simulating intestinal fluid (FaSSIF), fassif, fasted state simulating intestinal fluid (FaSSIF), read-out: equilibrium solubility in FaSSIF) | weight gain at 80% RH [2] | Dissolution Max ([3]; time 15) | Dissolution Mean ([3]; time 15) | Dissolution Min ([3]; time 15) | Dissolution Max ([3]; time 30) | Dissolution Mean ([3]; time 30) | Dissolution Min ([3]; time 30) | Dissolution Max ([3]; time 60 (60 min)) | Dissolution Mean ([3]; time 60 (60 min)) | Dissolution Min ([3]; time 60 (60 min)) | Intrinsic dissolution rate [4] | equilibrium solubility in FaSSGF ([1]; fasted state simulating gastric fluid (FaSSGF)) | equilibrium solubility in FaSSIF ([1]; fasted state simulating intestinal fluid (FaSSIF)) | average dose-normalized exposure (AUC0-6 h divided by dose) [5]
COc1ccc2c(c1)[C@]1(C[C@H]1c1ccc3c(/C=C/c4ccc(CN5C[C@@H](C)O[C@@H](C)C5)cc4)n[nH]c3c1)C(=O)N2 [form D] | 2080 µg/mL (≈ 3890 µM) | 80 µg/mL (≈ 150 µM) | 0.56% | 64% | 63% | 61% | 86% | 83% | 81% | 98% | 94% | 92% | 440.4 μg/cm^2-min |  |  | 
COc1ccc2c(c1)[C@]1(C[C@H]1c1ccc3c(/C=C/c4ccc(CN5C[C@@H](C)O[C@@H](C)C5)cc4)n[nH]c3c1)C(=O)N2 [form S4, (1R,2S)-(e)-2-(3-(4-((cis-2,6-dimethylmorpholino)methyl)styryl)-1 h-imidazol-6-yl)-5′-methoxyspiro[cyclopropane-1,3′-indolin]-2′-one fumarate] |  |  | 0.41% | 77% | 76% | 74% | 91% | 90% | 89% | 95% | 94% | 93% | 429.3 μg/cm^2-min | 2520 µg/mL | 50 µg/mL | 5.99 ± 2.48 ng·h/mL/mg
